Results published in US8436049B2, “Uses of pentamidine and related compounds” (State of Oregon Acting By and Through the State Board of …, priority 2008, dated 2013).
pEC50: −log10 of the molar value. Values joined by “and” are separate entries in the source; they are usually repeats but may differ in a detail not shown here. Identical values can stand only once. “Also recorded” adds a separate entry of the source.

Legend:
[1] = tested on: Serca1 pre-mRNA splicing, HSA^LR transgenic mice; test: Serca1 exon 22 splicing in vastus muscle of HSA^LR mouse model of DM; format: in vivo; conditions: intraperitoneal, HSA^LR control 17±4%, normal 99.7±0.1%
Protocol: (§4) Mouse handling and experimental procedures were conducted in accordance with the Association for Assessment and Accreditation of Laboratory Animal Care. HSA^LR transgenic mice in line 20b expressing human skeletal actin mRNA with ˜250 CUG repeats in the 3′ UTR were used (Mankodi et al., Science 289:1769-1772, 2000). Age- and gender-matched HSA^LR mice were injected intraperitoneally with pentamidine or saline (control). For a low-dose regimen, 25 mg/kg of pentamidine was administrated twice daily for 5 days. For a higher-dose regimen, 40 mg/kg of pentamidine was injected once daily for 7 days. Mice were sacrificed one day after the last injection, and vastus muscle was obtained for splicing analysis. […] PCR amplification was carried out for 22-24 cycles with the following primer pairs: Clc-1 forward, [sequence] (SEQ ID NO: 7), and reverse, [sequence] (SEQ ID NO: 8); Serca1 forward, [sequence] (SEQ ID NO: 9), and reverse, [sequence] (SEQ ID NO: 10). The PCR products were analyzed on agarose gels and scanned with a laser fluorimager (Typhoon, GE Healthcare, Piscataway, N.J.). Differences between the two groups were evaluated by Student's t-test.

[2] = tested on: Clc-1 pre-mRNA splicing, HSA^LR transgenic mice; test: Clc-1 exon 7a splicing in vastus muscle of HSA^LR mouse model of DM; format: in vivo; conditions: intraperitoneal, saline HSA^LR control 46±6%, normal mice 94±1%
Protocol: as §4

[3] = mouse, in vivo
Protocol: Mouse handling and experimental procedures were conducted in accordance with the Association for Assessment and Accreditation of Laboratory Animal Care. HSA^LR transgenic mice in line 20b expressing human skeletal actin mRNA with ˜250 CUG repeats in the 3′ UTR were used (Mankodi et al., Science 289:1769-1772, 2000). Age- and gender-matched HSA^LR mice were injected intraperitoneally with pentamidine or saline (control). For a low-dose regimen, 25 mg/kg of pentamidine was administrated twice daily for 5 days. For a higher-dose regimen, 40 mg/kg of pentamidine was injected once daily for 7 days. Mice were sacrificed one day after the last injection, and vastus muscle was obtained for splicing analysis. […] The PCR products were analyzed on agarose gels and scanned with a laser fluorimager (Typhoon, GE Healthcare, Piscataway, N.J.). Differences between the two groups were evaluated by Student's t-test.
The ability of pentamidine to rescue mis-splicing in a mouse model (HSA^LR) where CUG repeats are expressed was tested. Pentamidine was administered by intraperitoneal injection in two dosage regimens, and mis-splicing of the Clc-1 and Serca1 pre-mRNAs was measured.

[4] = tested on: IR splicing reporter in HeLa cells; test: IR splicing reporter (exon 11 inclusion) in HeLa cells with or without CUG960 plasmid; format: cell-based; conditions: for Rescue of IR reporter mis-splicing: cells expressing 960 CUG repeats
Protocol: (§1) HeLa cells were grown in monolayers in DMEM with GlutaMAX™ (Gibco, Carlsbad, Calif.) and supplemented with 10% fetal bovine serum. Approximately 2.0 (±0.2)×10^5 cells were plated in 6 well plates and transfected 18-20 hours later at 70-90% confluency. 1 μg of plasmid was transfected into each well of cells, using 5 μL of […] (Invitrogen) according to the manufacturer's protocols. For co-transfection, 1 μg of total plasmid was transfected, at 500 ng of each construct. Test compounds were added 4 hours after transfection, when the media was changed. Cells were harvested 18-22 hours after transfection using TrypLE™ reagent (Gibco).
(§2) Immediately following harvesting, RNA was isolated from the cell pellets using an RNeasy® kit (Qiagen, Valencia, Calif.). 500 ng of isolated RNA was DNased with RQI DNase (Promega, Madison, Wis.) according to manufacture's protocol. 100 ng of DNAsed RNA was reverse transcribed with Superscript® II (Invitrogen, Carlsbad, Calif.) and a cTNT-specific reverse primer according to manufacturer's protocols. 30 ng of the reverse transcription reaction was subjected to 22-25 rounds of PCR amplification using cTNT specific primers spiked with a forward primer 5′ end-labeled with [γ-^32P]ATP. Similar methods were used to reverse transcribe and amplify IR and PLEKHH2. […] The resulting PCR products were run on a 6% (19:1) polyacrylamide denaturing gel. The gel was subsequently autoradiographed and quantitation of the radioactive bands was performed using ImageQuant® software.
(§3) The following primer pairs were used. For the cTNT minigene, the forward primer was […] (SEQ ID NO: 1), and the reverse primer was […] (SEQ ID NO: 2). For the IR minigene, the forward primer was […] (SEQ ID NO: 3), and the reverse primer was […] (SEQ ID NO: 4). The underlined sections are for cloning purposes. For the PLEKHH2 minigene, the forward primer was […] (SEQ ID NO: 5), and the reverse primer was […] (SEQ ID NO: 6).
The ability of pentamidine to alter the splicing defects observed in a cell-based model for DM was tested. […]

[5] = target: T1, MBNL-cTNT interaction (Homo sapiens, UniProt Q9NR56); test: Gel shift assay, disruption of MBNL binding to cTNT pre-mRNA site; conditions: read-out: EC50 for disruption of MBNL binding to cTNT target construct
T1 construct: Both the full length MBNL and MBNL (1-260) constructs were cloned using BamHI and NotI restriction sites; GST (N, cleaved yes); made in house; host or cells: E. coli BL21-Star
T1 sequence (Q9NR56 1-382 isoform Q9NR56-5): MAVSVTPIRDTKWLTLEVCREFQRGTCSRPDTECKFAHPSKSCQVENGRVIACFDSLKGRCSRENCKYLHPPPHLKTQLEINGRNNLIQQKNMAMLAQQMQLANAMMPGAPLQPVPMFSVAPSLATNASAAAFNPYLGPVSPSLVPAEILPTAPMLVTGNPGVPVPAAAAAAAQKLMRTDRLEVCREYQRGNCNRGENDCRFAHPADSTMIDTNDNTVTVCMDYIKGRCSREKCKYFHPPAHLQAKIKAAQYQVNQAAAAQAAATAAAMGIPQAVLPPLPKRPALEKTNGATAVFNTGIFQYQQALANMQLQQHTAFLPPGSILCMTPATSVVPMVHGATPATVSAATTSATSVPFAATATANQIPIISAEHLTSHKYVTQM
Protocol: Solutions for the protein-RNA binding experiments contained 125 mM NaCl, 5 mM MgCl2, 20 mM Tris (pH 7.5), 7.5% glycerol, 2 mg/ml bovine serum albumin, and 0.1 mg/ml heparin. Prior to incubation, RNA substrates were annealed by incubation at 95° C. for 2 minutes and then placed directly on ice for 20 minutes in 66 mM NaCl, 6.7 mM MgCl2, and 27 mM Tris (pH 7.5). Protein was then added to the RNA in the presence or absence of the small molecule. The binding reaction was carried out in a 10 μL volume and was incubated for 10 minutes at room temperature before 2-4 μL were loaded on a pre-chilled 4° C. gel. […]
For binding curves, gels were quantified using ImageQuant® software (Molecular Dynamics, Piscataway, N.J.). The percent RNA bound was determined by taking the ratio of RNA-protein complex to total RNA, per lane. […] Binding curves were graphed using KaleidaGraph software (Synergy Software, Reading, Pa.). For the neomycin B and CUG8 gel shift, the apparent Kd was determined using Equation 1, where Y=fraction bound, m0=small molecule concentration, m1=total RNA concentration, and m2=Kd. […]
Pentamidine has been shown previously to bind to other RNAs and DNAs (Zhang et al., RNA 6:937-951, 2000); therefore, we determined pentamidine binding to an endogenous target of MBNL. […]

[6] = tested on: cTNT splicing reporter in HeLa cells; test: cTNT splicing reporter (exon 5 inclusion) in HeLa cells with or without CUG960 plasmid; format: cell-based; conditions: for cTNT exon 5 inclusion: absence of CUG repeats; for Rescue of cTNT exon 5 inclusion: cells expressing 960 CUG repeats
Protocol: as §1, §2, §3
The ability of pentamidine to alter the splicing defects observed in a cell-based model for DM was tested. This was accomplished in a system using cells transformed with a plasmid expressing 960 CUG repeats where the expression of these CUG repeats causes splicing defects similar to those observed in DM cells and DM subjects (Savkur et al., Nature Genet. 29:40-47, 2001).

[7] = 25 mg/kg twice daily for 5 days

N=C(N)c1ccc(OCCCCCOc2ccc(C(=N)N)cc2)cc1 [pentamidine]
Serca1 exon 22 inclusion [1, 7]: 22±2% | Serca1 exon 22 inclusion ([1]; 40 mg/kg once daily for 7 days): 40±4% | Clc-1 exon 7a exclusion [2, 7]: 63±3% | Clc-1 exon 7a exclusion ([2]; 40 mg/kg once daily for 7 days): 66±4% | Toxicity in mice [3]: substantial toxicity | Rescue of IR reporter mis-splicing ([4]; 25 μM): partially rescued | Rescue of IR reporter mis-splicing ([4]; 50 μM): fully rescued; also recorded: fully rescue the IR mis-splicing | Effect on splicing of the IR reporter ([4]; cells lacking the CUG repeats): did not affect the splicing of the IR reporter | pEC50 [5]: ~4.07 and 4.07 | cTNT exon 5 inclusion ([6]; 25 μM): 62% | Rescue of cTNT exon 5 inclusion ([6]; 25 μM): no effect | Rescue of cTNT exon 5 inclusion ([6]; 50 μM): partial rescue; also recorded: partially rescue the cTNT mis-splicing | cTNT exon 5 inclusion ([6]; 75 μM): 30% | Rescue of cTNT exon 5 inclusion ([6]; 75 μM): full recovery | Concentration giving complete rescue of cTNT missplicing ([6]; presence of the CUG960 construct): 75 µM
